# Data taken from PubChem BioAssay AID2060617 (Molecular Pharmacology Branch, DTP, NCI, 2025).
# pIC50: −log10 of the molar value. “And” between values parts separate entries of the source, which are not always exact repeats. Identical values can stand only once.
# Test system: 485368-065-R4-J2-PDC spheroids with HUVEC/MSC, viability
# Assay: Anticancer human tumor 485368-065-R4-J2-PDC patient-derived pancreatic carcinoma cell line growth inhibition [CLK]
# Details: for viability, T/C: stronger effect = lower value
# Summary of the method: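 Patient-derived tumor cells grown as complex spheroids with HUVEC endothelial cells and mesenchymal stem cells, treated with drug combinations. Concentrations descend in half-log steps from near clinical Cmax, or from 10 microM if Cmax unknown.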
# [1] = curve of first compound, second compound 0.0316 µM
# [2] = curve of first compound, second compound 0.1 µM
# [3] = curve of first compound, second compound 0.316 µM
# [4] = curve of first compound, second compound 1 µM
# [5] = curve of first compound, second compound 3.16 µM
# [6] = curve of first compound, second compound 10 µM
# [7] = second compound 0.0316 µM, first compound 0.0316 µM
# [8] = second compound 0.0316 µM, first compound 0.1 µM
# [9] = second compound 0.1 µM, first compound 0.0316 µM
# [10] = second compound 0.1 µM, first compound 0.1 µM
# [11] = second compound 0.316 µM, first compound 0.0316 µM
# [12] = second compound 0.316 µM, first compound 0.1 µM
# [13] = second compound 1 µM, first compound 0.0316 µM
# [14] = second compound 1 µM, first compound 0.1 µM
# [15] = second compound 3.16 µM, first compound 0.0316 µM
# [16] = second compound 3.16 µM, first compound 0.1 µM
# [17] = second compound 10 µM, first compound 0.0316 µM
# [18] = second compound 10 µM, first compound 0.1 µM
# 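Note: spheroids exposed to compounds for seven days.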
# 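Throughout, for viability, T/C: 100% = DMSO vehicle control wells.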
compound,measurement,setting,value
Cn1ncnc1[C@H]1c2n[nH]c(=O)c3cc(F)cc(c23)N[C@@H]1c1ccc(F)cc1 + CNC(=O)c1ccc(Nc2nc(OC3CCCC3)c3c(-c4ccc5nc(C)oc5c4)c[nH]c3n2)c(OC)c1,pIC50,[1],< 7.00
same,pIC50,[2],< 7.00
same,pIC50,[3],< 7.00
same,pIC50,[4],< 7.00
same,pIC50,[5],< 7.00
same,pIC50,[6],< 7.00
same,"viability, T/C","second compound 0.0316 µM, first compound 0.000316 µM",91.9%
same,"viability, T/C","second compound 0.0316 µM, first compound 0.001 µM",94.1%
same,"viability, T/C","second compound 0.0316 µM, first compound 0.00316 µM",97.4%
same,"viability, T/C","second compound 0.0316 µM, first compound 0.01 µM",105%
same,"viability, T/C",[7],98%
same,"viability, T/C",[8],90.8%
same,"viability, T/C","second compound 0.1 µM, first compound 0.000316 µM",89.3%
same,"viability, T/C","second compound 0.1 µM, first compound 0.001 µM",97.8%
same,"viability, T/C","second compound 0.1 µM, first compound 0.00316 µM",99%
same,"viability, T/C","second compound 0.1 µM, first compound 0.01 µM",105%
same,"viability, T/C",[9],89.7%
same,"viability, T/C",[10],82.4%
same,"viability, T/C","second compound 0.316 µM, first compound 0.000316 µM",79.6%
same,"viability, T/C","second compound 0.316 µM, first compound 0.001 µM",79.5%
same,"viability, T/C","second compound 0.316 µM, first compound 0.00316 µM",81.2%
same,"viability, T/C","second compound 0.316 µM, first compound 0.01 µM",77.9%
same,"viability, T/C",[11],89%
same,"viability, T/C",[12],73%
same,"viability, T/C","second compound 1 µM, first compound 0.000316 µM",74.7%
same,"viability, T/C","second compound 1 µM, first compound 0.001 µM",75.8%
same,"viability, T/C","second compound 1 µM, first compound 0.00316 µM",79%
same,"viability, T/C","second compound 1 µM, first compound 0.01 µM",66.6%
same,"viability, T/C",[13],77%
same,"viability, T/C",[14],63.3%
same,"viability, T/C","second compound 3.16 µM, first compound 0.000316 µM",78.4%
same,"viability, T/C","second compound 3.16 µM, first compound 0.001 µM",74.3%
same,"viability, T/C","second compound 3.16 µM, first compound 0.00316 µM",69.8%
same,"viability, T/C","second compound 3.16 µM, first compound 0.01 µM",67.4%
same,"viability, T/C",[15],59.1%
same,"viability, T/C",[16],66%
same,"viability, T/C","second compound 10 µM, first compound 0.000316 µM",70%
same,"viability, T/C","second compound 10 µM, first compound 0.001 µM",69.7%
same,"viability, T/C","second compound 10 µM, first compound 0.00316 µM",60.8%
same,"viability, T/C","second compound 10 µM, first compound 0.01 µM",62.9%
same,"viability, T/C",[17],64.2%
same,"viability, T/C",[18],57.9%
C=CC(=O)N1CCN(c2nc(=O)n(-c3c(C)ccnc3C(C)C)c3nc(-c4c(O)cccc4F)c(F)cc23)C(C)C1 (stereo not given) + CN1CCN(c2cc(C(=O)Nc3cc4cc(-c5cnn(C)c5)ccc4cn3)ccn2)CC1,pIC50,[1],< 5.00
same,pIC50,[2],< 5.00
same,pIC50,[3],< 5.00
same,pIC50,[4],> 7.50
same,pIC50,[5],> 7.50
same,pIC50,[6],> 7.50
same,"viability, T/C",[7],107%
same,"viability, T/C",[8],106%
same,"viability, T/C","second compound 0.0316 µM, first compound 0.316 µM",99.6%
same,"viability, T/C","second compound 0.0316 µM, first compound 1 µM",104%
same,"viability, T/C","second compound 0.0316 µM, first compound 3.16 µM",99.5%
same,"viability, T/C","second compound 0.0316 µM, first compound 10 µM",106%
same,"viability, T/C",[9],96.7%
same,"viability, T/C",[10],121%
same,"viability, T/C","second compound 0.1 µM, first compound 0.316 µM",107%
same,"viability, T/C","second compound 0.1 µM, first compound 1 µM",108%
same,"viability, T/C","second compound 0.1 µM, first compound 3.16 µM",105%
same,"viability, T/C","second compound 0.1 µM, first compound 10 µM",102%
same,"viability, T/C",[11],83.3%
same,"viability, T/C",[12],86.6%
same,"viability, T/C","second compound 0.316 µM, first compound 0.316 µM",94.9%
same,"viability, T/C","second compound 0.316 µM, first compound 1 µM",94.1%
same,"viability, T/C","second compound 0.316 µM, first compound 3.16 µM",88.9%
same,"viability, T/C","second compound 0.316 µM, first compound 10 µM",78.7%
same,"viability, T/C",[13],1.22%
same,"viability, T/C",[14],1.11%
same,"viability, T/C","second compound 1 µM, first compound 0.316 µM",1.36%
same,"viability, T/C","second compound 1 µM, first compound 1 µM",1.9%
same,"viability, T/C","second compound 1 µM, first compound 3.16 µM",3.44%
same,"viability, T/C","second compound 1 µM, first compound 10 µM",3.58%
same,"viability, T/C",[15],3.01%
same,"viability, T/C",[16],2.65%
same,"viability, T/C","second compound 3.16 µM, first compound 0.316 µM",2.4%
same,"viability, T/C","second compound 3.16 µM, first compound 1 µM",2.51%
same,"viability, T/C","second compound 3.16 µM, first compound 3.16 µM",4.69%
same,"viability, T/C","second compound 3.16 µM, first compound 10 µM",10.6%
same,"viability, T/C",[17],1.58%
same,"viability, T/C",[18],2.84%
same,"viability, T/C","second compound 10 µM, first compound 0.316 µM",2.36%
same,"viability, T/C","second compound 10 µM, first compound 1 µM",3.44%
same,"viability, T/C","second compound 10 µM, first compound 3.16 µM",4%
same,"viability, T/C","second compound 10 µM, first compound 10 µM",8.87%
C=CC(=O)Nc1cc(Nc2nccc(-c3cn(C)c4ccccc34)n2)c(OC)cc1N(C)CCN(C)C,"viability, T/C",compound 0.000949 µM,109% and 99.5%
same,"viability, T/C",compound 0.003 µM,97.1% and 97.7%
same,"viability, T/C",compound 0.00949 µM,97.5% and 83.8%
same,"viability, T/C",compound 0.03 µM,104% and 97.5%
same,"viability, T/C",compound 0.0949 µM,110% and 96.7%
same,"viability, T/C",compound 0.3 µM,107% and 99.8%
same,pIC50,curve of compound,< 6.52
C=CC(=O)Nc1cc(Nc2nccc(-c3cn(C)c4ccccc34)n2)c(OC)cc1N(C)CCN(C)C + CN1CCN(c2cc(C(=O)Nc3cc4cc(-c5cnn(C)c5)ccc4cn3)ccn2)CC1,pIC50,[1],< 6.52
same,pIC50,[2],< 6.52
same,pIC50,[3],< 6.52
same,pIC50,[4],> 9.02
same,pIC50,[5],> 9.02
same,pIC50,[6],> 9.02
same,"viability, T/C","second compound 0.0316 µM, first compound 0.000949 µM",106%
same,"viability, T/C","second compound 0.0316 µM, first compound 0.003 µM",113%
same,"viability, T/C","second compound 0.0316 µM, first compound 0.00949 µM",99.1%
same,"viability, T/C","second compound 0.0316 µM, first compound 0.03 µM",101%
same,"viability, T/C","second compound 0.0316 µM, first compound 0.0949 µM",103%
same,"viability, T/C","second compound 0.0316 µM, first compound 0.3 µM",100%
same,"viability, T/C","second compound 0.1 µM, first compound 0.000949 µM",114%
same,"viability, T/C","second compound 0.1 µM, first compound 0.003 µM",113%
same,"viability, T/C","second compound 0.1 µM, first compound 0.00949 µM",112%
same,"viability, T/C","second compound 0.1 µM, first compound 0.03 µM",113%
same,"viability, T/C","second compound 0.1 µM, first compound 0.0949 µM",105%
same,"viability, T/C","second compound 0.1 µM, first compound 0.3 µM",103%
same,"viability, T/C","second compound 0.316 µM, first compound 0.000949 µM",75.7%
same,"viability, T/C","second compound 0.316 µM, first compound 0.003 µM",83.8%
same,"viability, T/C","second compound 0.316 µM, first compound 0.00949 µM",84.6%
same,"viability, T/C","second compound 0.316 µM, first compound 0.03 µM",85.3%
same,"viability, T/C","second compound 0.316 µM, first compound 0.0949 µM",82.7%
same,"viability, T/C","second compound 0.316 µM, first compound 0.3 µM",74.2%
same,"viability, T/C","second compound 1 µM, first compound 0.000949 µM",1.06%
same,"viability, T/C","second compound 1 µM, first compound 0.003 µM",1.02%
same,"viability, T/C","second compound 1 µM, first compound 0.00949 µM",0.96%
same,"viability, T/C","second compound 1 µM, first compound 0.03 µM",0.9%
same,"viability, T/C","second compound 1 µM, first compound 0.0949 µM",1.6%
same,"viability, T/C","second compound 1 µM, first compound 0.3 µM",0.54%
same,"viability, T/C","second compound 3.16 µM, first compound 0.000949 µM",1.42%
same,"viability, T/C","second compound 3.16 µM, first compound 0.003 µM",2.3%
same,"viability, T/C","second compound 3.16 µM, first compound 0.00949 µM",1.16%
same,"viability, T/C","second compound 3.16 µM, first compound 0.03 µM",2.05%
same,"viability, T/C","second compound 3.16 µM, first compound 0.0949 µM",2.29%
same,"viability, T/C","second compound 3.16 µM, first compound 0.3 µM",2.5%
same,"viability, T/C","second compound 10 µM, first compound 0.000949 µM",1.61%
same,"viability, T/C","second compound 10 µM, first compound 0.003 µM",3.07%
same,"viability, T/C","second compound 10 µM, first compound 0.00949 µM",1.3%
same,"viability, T/C","second compound 10 µM, first compound 0.03 µM",1.38%
same,"viability, T/C","second compound 10 µM, first compound 0.0949 µM",2.42%
same,"viability, T/C","second compound 10 µM, first compound 0.3 µM",2.16%
C=CC(=O)N1CCN(c2nc(=O)n(-c3c(C)ccnc3C(C)C)c3nc(-c4c(O)cccc4F)c(F)cc23)C(C)C1 (stereo not given),"viability, T/C",compound 0.0316 µM,96.8% and 96.9%
same,"viability, T/C",compound 0.1 µM,96.4% and 107%
same,"viability, T/C",compound 0.316 µM,99.8% and 100%
same,"viability, T/C",compound 1 µM,97.9% and 106%
same,"viability, T/C",compound 3.16 µM,92.3% and 88.3%
same,"viability, T/C",compound 10 µM,89.2% and 93.7%
same,pIC50,curve of compound,< 5.00
